One test concerns the target T1, PLA2G16 (Homo sapiens, UniProt P53816).
T1 construct: Hexa-His (N); made in house; host or cells: E. coli BL21(DE3)
T1 sequence (P53816 1-162): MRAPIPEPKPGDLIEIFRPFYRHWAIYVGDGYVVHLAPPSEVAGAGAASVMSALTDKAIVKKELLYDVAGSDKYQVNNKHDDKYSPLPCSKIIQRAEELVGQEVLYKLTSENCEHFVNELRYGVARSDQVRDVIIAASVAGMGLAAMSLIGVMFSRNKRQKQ
Nature of the test: Enzyme activity assay for PLA2G16 (Red/Green BODIPY PC-A2 fluorescence). The format is biochemical. Particulars: His-tagged PLA2G16, 4 min pre-incubation, compound 2 nM to 50 μM; first symbol in parentheses. Summed up: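 N-His human PLA2G16 was expressed in E. coli and Ni-NTA purified. Enzyme in 5 mM glutathione was preincubated 4 min with compound (2 nM–50 μM final), then Red/Green BODIPY PC-A2 in DOPC/DOPG/cholesterol vesicles was added (50 mM Tris pH 8.5, 100 mM NaCl). Fluorescence increase (ex 480/em 530 nm) over 10 min gave activity; IC50 came from nonlinear regression.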

Test [1] relates to picornaviruses (CVB1, HRV-A2, HRV-A23, EV-68). As to the kind of experiment: Anti-picornavirus cytopathic effect (CPE) reduction assay on HeLa H1 cells. Particulars: 48 h, category from averaging EC50 values of four picornaviruses (CVB1, HRV-A2, HRV-A23, EV68), second symbol in parentheses. The format is cell-based. A digest of the protocol:
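HeLa H1 cells pre-treated 2 h with serial compound dilutions in 2% FBS DMEM, then infected at an MOI giving full CPE in 2 days; after 48 h, viability by CellTiterBlue fluorescence (560/590 nm) normalised to infected and uninfected vehicle controls; EC50 by non-linear regression, averaged over the four viruses.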
(In general: Damage to the host cells serves as the signal in cytopathic effect assays.)

The text below walks through data of patent US11180479B2 (HAPLOGEN GmbH, priority 2017, dated 2021).

Structures are written as SMILES. Some results are limits rather than exact numbers.

As a reminder, the IC50 is the point on the concentration scale where inhibition reaches its midpoint. Usually EC50 stands for the concentration at which the effect is half-maximal. With `O=C(NCC1CC1)C(=O)[C@H]1CNC(=O)[C@@H]1c1ccccc1` (racemic) [FP-10, Rac-N-(cyclopropylmethyl)-2-oxo-2-[(3R,4S)-5-oxo-4-phenylpyrrolidin-3-yl]acetamide], the IC50 at PLA2G16 is under 1000 nM. The concentration giving a half-maximal response (EC50) in test [1] was under 1000 nM.

For `O=C(NC1CC1)C(=O)[C@H]1CNC(=O)[C@@H]1Cc1ccc(F)cc1` (racemic) [FP-29, Rac-N-cyclopropyl-2-[(3R,4R)-4-[(4-fluorophenyl)methyl]-5-oxopyrrolidin-3-yl]-2-oxoacetamide], the IC50 at PLA2G16 is under 1000 nM. Moreover, in test [1], the EC50 was under 1000 nM.

Turning to `CCNC(=O)C(=O)[C@H]1CNC(=O)[C@@H]1Cc1ccccc1` (racemic) [FP-3, Rac-2-[(3R,4R)-4-benzyl-5-oxopyrrolidin-3-yl]-N-ethyl-2-oxoacetamide], the IC50 on PLA2G16 was under 1000 nM. Moreover, the EC50 in test [1] is under 1000 nM.

For `O=C(NC1CC1)C(=O)[C@H]1CN(c2cccc(OCc3ccccc3)n2)C(=O)[C@@H]1Cc1ccccc1` (racemic) [FP-69, Rac-2-[(3R,4R)-4-benzyl-1-[6-(benzyloxy)pyridin-2-yl]-5-oxopyrrolidin-3-yl]-N-cyclopropyl-2-oxoacetamide], on PLA2G16, the IC50 was under 1000 nM. Also, in test [1], the EC50 was under 1000 nM.

Consider `Cn1ncnc1CN1C[C@H](C(=O)C(=O)NC2CC2)[C@@H](Cc2ccc(F)cc2)C1=O` (racemic) [FP-52, Rac-N-cyclopropyl-2-[(3R,4R)-4-[(4-fluorophenyl)methyl]-1-[(1-methyl-1H-1,2,4-triazol-5-yl)methyl]-5-oxopyrrolidin-3-yl]-2-oxoacetamide], for which, at PLA2G16, the IC50 is under 1000 nM. Further, the EC50 in test [1] is over 10000 nM.

As for `Cc1noc(CN2C[C@H](C(=O)C(=O)NC3CC3)[C@@H](Cc3ccccc3)C2=O)n1` (racemic) [FP-34, Rac-2-[(3R,4R)-4-benzyl-1-[(3-methyl-1,2,4-oxadiazol-5-yl)methyl]-5-oxopyrrolidin-3-yl]-N-cyclopropyl-2-oxoacetamide], at PLA2G16, the IC50 was under 1000 nM. Moreover, the concentration for a half-maximal effect (EC50) in test [1] was 1000 to 10000 nM.

Regarding `O=C(NCC(F)F)C(=O)[C@@H]1CNC(=O)[C@H]1Cc1ccccc1` (single isomer, unassigned) [FP-84], at PLA2G16, the IC50 was 1000 to 10000 nM. The 50% effective concentration (EC50) in test [1] was over 10000 nM.

Take `O=C(NC1CC1)C(=O)[C@@H]1CN(c2cnccn2)C(=O)[C@H]1Cc1ccccc1` (single isomer, unassigned) [FP-94]: the IC50 at PLA2G16 is under 1000 nM. Further, the EC50 in test [1] is 1000 to 10000 nM.

Turning to `O=C(NC1CC1)C(=O)[C@H]1CN(c2cnccn2)C(=O)[C@@H]1Cc1ccccc1` (racemic) [FP-57, Rac-2-[(3R,4R)-4-benzyl-5-oxo-1-(pyrazin-2-yl)pyrrolidin-3-yl]-N-cyclopropyl-2-oxoacetamide], the IC50 at PLA2G16 is under 1000 nM. In test [1], the EC50 was under 1000 nM.

Turning to `O=C(NCC1CC1)C(=O)[C@@H]1CNC(=O)[C@H]1Cc1ccccc1` (single isomer, unassigned) [FP-82], the IC50 on PLA2G16 was under 1000 nM. The EC50 in test [1] is 1000 to 10000 nM.

For `O=C(NC1CC1)C(=O)[C@H]1CN(c2cc(Cl)cc(=O)[nH]2)C(=O)[C@@H]1Cc1ccccc1` (racemic) [FP-71, Rac-2-[(3R,4R)-4-benzyl-1-(4-chloro-6-oxo-1,6-dihydropyridin-2-yl)-5-oxopyrrolidin-3-yl]-N-cyclopropyl-2-oxoacetamide], the IC50 at PLA2G16 is under 1000 nM. Further, the 50% effective concentration (EC50) in test [1] is under 1000 nM.

As to `O=C(NCC1CC1)C(=O)[C@@H]1CNC(=O)[C@H]1c1ccccc1` (single isomer, unassigned) [FP-85], the IC50 at PLA2G16 is under 1000 nM. Also, the concentration giving a half-maximal response (EC50) in test [1] is over 10000 nM.

On to `Cn1cc(N2C[C@H](C(=O)C(=O)NC3CC3)[C@@H](Cc3ccccc3)C2=O)cn1` (racemic) [FP-75, Rac-2-[(3R,4R)-4-benzyl-1-(1-methyl-1H-pyrazol-4-yl)-5-oxopyrrolidin-3-yl]-N-cyclopropyl-2-oxoacetamide], for which the IC50 on PLA2G16 was under 1000 nM. Also, the half-maximal effective concentration (EC50) in test [1] is under 1000 nM.

As for `CC(F)(F)CNC(=O)C(=O)[C@H]1CN(c2cccc(OCc3ccccc3)n2)C(=O)[C@@H]1Cc1ccccc1` (racemic) [FP-73, Rac-2-[(3R,4R)-4-benzyl-1-[6-(benzyloxy)pyridin-2-yl]-5-oxopyrrolidin-3-yl]-N-(2,2-difluoropropyl)-2-oxoacetamide], at PLA2G16, the IC50 is under 1000 nM. Also, the EC50 in test [1] was under 1000 nM.

As for `O=C(NC1CC1)C(=O)[C@H]1CN(CCN2CCCC2=O)C(=O)[C@@H]1Cc1ccccc1` (racemic) [FP-48, Rac-2-[(3R,4R)-4-benzyl-5-oxo-1-[2-(2-oxopyrrolidin-1-yl)ethyl]pyrrolidin-3-yl]-N-cyclopropyl-2-oxoacetamide], at PLA2G16, the IC50 is under 1000 nM. The EC50 in test [1] is 1000 to 10000 nM.

Consider `Cc1cc(CN2C[C@H](C(=O)C(=O)NC3CC3)[C@@H](c3ccccc3)C2=O)no1` (racemic) [FP-100, Rac-N-cyclopropyl-2-[(3R,4S)-1-[(5-methyl-1,2-oxazol-3-yl)methyl]-5-oxo-4-phenylpyrrolidin-3-yl]-2-oxoacetamide], for which the IC50 at PLA2G16 was under 1000 nM. Further, in test [1], the concentration for a half-maximal effect (EC50) was in the range of 1000 to 10000 nM.

Take `CC(C)NC(=O)C(=O)[C@H]1CNC(=O)[C@@H]1c1ccccc1` (racemic) [FP-78, Rac-2-oxo-2-[(3R,4S)-5-oxo-4-phenylpyrrolidin-3-yl]-N-(propan-2-yl)acetamide]: the IC50 at PLA2G16 is under 1000 nM. Besides, the EC50 in test [1] fell in the range of 1000 to 10000 nM.

As for `Cn1ncnc1CN1C[C@H](C(=O)C(=O)NCC(C)(F)F)[C@@H](Cc2ccc(F)cc2)C1=O` (racemic) [FP-53, Rac-N-(2,2-difluoropropyl)-2-[(3R,4R)-4-[(4-fluorophenyl)methyl]-1-[(1-methyl-1H-1,2,4-triazol-5-yl)methyl]-5-oxopyrrolidin-3-yl]-2-oxoacetamide], the IC50 on PLA2G16 was under 1000 nM. For the same molecule, in test [1], the EC50 was in the range of 1000 to 10000 nM.

Take `O=C(NC1CCOCC1)C(=O)[C@H]1CNC(=O)[C@@H]1Cc1ccccc1` (racemic) [FP-7, Rac-2-[(3R,4R)-4-benzyl-5-oxopyrrolidin-3-yl]-N-(oxan-4-yl)-2-oxoacetamide]: the IC50 on PLA2G16 was under 1000 nM. In addition, the EC50 in test [1] lay within 1000 to 10000 nM.

As for `CC(C)NC(=O)C(=O)[C@H]1CNC(=O)[C@@H]1Cc1ccccc1` (racemic) [FP-5, Rac-2-[(3R,4R)-4-benzyl-5-oxopyrrolidin-3-yl]-2-oxo-N-(propan-2-yl)acetamide], the IC50 at PLA2G16 was under 1000 nM. For the same molecule, the EC50 in test [1] was under 1000 nM.

Regarding `CC(C)(C)NC(=O)C(=O)[C@H]1CNC(=O)[C@@H]1c1ccccc1` (racemic) [FP-17, Rac-N-tert-butyl-2-oxo-2-[(3R,4S)-5-oxo-4-phenylpyrrolidin-3-yl]acetamide], the IC50 at PLA2G16 is under 1000 nM. In test [1], the EC50 is under 1000 nM.

As for `O=C(NCC1CC1)C(=O)[C@H]1CN(c2cncnc2)C(=O)[C@@H]1c1ccccc1` (racemic) [FP-64, Rac-N-(cyclopropylmethyl)-2-oxo-2-[(3R,4S)-5-oxo-4-phenyl-1-(pyrimidin-5-yl)pyrrolidin-3-yl]acetamide], on PLA2G16, the IC50 is under 1000 nM. In addition, the EC50 in test [1] lay within 1000 to 10000 nM.

In the case of `CCCCNC(=O)C(=O)[C@H]1CNC(=O)[C@@H]1c1ccccc1` (racemic) [FP-103, Rac-N-butyl-2-oxo-2-[(3R,4S)-5-oxo-4-phenylpyrrolidin-3-yl]acetamide], the 50% inhibitory concentration (IC50) on PLA2G16 is under 1000 nM. In addition, the concentration giving a half-maximal response (EC50) in test [1] was under 1000 nM.

On to `O=C(NC1CC1)C(=O)C1CC(=O)N(Cc2ccccc2)C1` (stereo not shown) [FP-104, 2-(1-Benzyl-5-oxopyrrolidin-3-yl)-N-cyclopropyl-2-oxoacetamide], for which, at PLA2G16, the IC50 was under 1000 nM. Further, the EC50 in test [1] was in the range of 1000 to 10000 nM.

Regarding `CC(C)CNC(=O)C(=O)[C@@H]1CN(CC(=O)N(C)C)C(=O)[C@H]1Cc1ccccc1` (single isomer, unassigned) [FP-91], at PLA2G16, the IC50 was 1000 to 10000 nM. Also, the EC50 in test [1] is over 10000 nM.

Take `CC(C)CNC(=O)C(=O)[C@H]1CN(CCN2CCCC2=O)C(=O)[C@@H]1Cc1ccccc1` (racemic) [FP-47, Rac-2-[(3R,4R)-4-benzyl-5-oxo-1-[2-(2-oxopyrrolidin-1-yl)ethyl]pyrrolidin-3-yl]-N-(2-methylpropyl)-2-oxoacetamide]: the IC50 on PLA2G16 was under 1000 nM. For the same molecule, the EC50 in test [1] lay within 1000 to 10000 nM.

With `O=C(NCC(F)F)C(=O)[C@H]1CNC(=O)[C@@H]1Cc1ccccc1` (racemic) [FP-4, Rac-2-[(3R,4R)-4-benzyl-5-oxopyrrolidin-3-yl]-N-(2,2-difluoroethyl)-2-oxoacetamide], the IC50 on PLA2G16 was under 1000 nM. Moreover, the EC50 in test [1] was under 1000 nM.

For `CC(F)(F)CNC(=O)C(=O)[C@H]1CN(c2cccc(=O)[nH]2)C(=O)[C@@H]1Cc1ccccc1` (racemic) [FP-74, Rac-2-[(3R,4R)-4-benzyl-5-oxo-1-(6-oxo-1,6-dihydropyridin-2-yl)pyrrolidin-3-yl]-N-(2,2-difluoropropyl)-2-oxoacetamide], the IC50 at PLA2G16 is under 1000 nM. For the same molecule, in test [1], the EC50 was under 1000 nM.

`CC(C)CNC(=O)C(=O)[C@H]1CNC(=O)[C@@H]1Cc1ccccn1` (racemic) [FP-80, Rac-N-(2-methylpropyl)-2-oxo-2-[(3R,4R)-5-oxo-4-[(pyridin-2-yl)methyl]pyrrolidin-3-yl]acetamide]: the IC50 at PLA2G16 is under 1000 nM. Besides, the concentration giving a half-maximal response (EC50) in test [1] was under 1000 nM.
